Reference: patent US10613104B2, “Assay to determine anticoagulants in blood or blood plasma” (ZAFENA AB, priority 2014, dated 2020)

System: prothrombin time (PT) of normal plasma NKP
Assay: Three wet-chemistry Owren PT methods (Simple Simon PT; 20, 10, 5 μL sample in 200 μL reagent) on normal plasma NKP with added anticoagulant
Assay type: biochemical
Experimental: Experimental work was performed with the commercially available ambient room temperature coagulation instrument, Simple Simon P T Zafena A B, Linköping, Sweden, with functions described in EP 1 636 595 B2. One instrument or reader was used for each PT-method. Alternatively, the same instrument could be used for all PT-methods.
The three instruments were used together standing next to one another on a laboratory bench in thermal equilibrium with the ambient room temperature of the laboratory.
The ambient room temperature in the laboratory where the work was done varied between 21° C. and 26° C.
The PT-reagent was the one delivered together with lot N223M of the Simple Simon PT product, a reagent of Owren-type that thus contains effective amounts of thromboplastin, fibrinogen and FV (the thromboplastin of rabbit brain origin and the fibrinogen and the FV of bovine blood plasma origin). Other Owren type reagents could also be used.
The reagent was in portions of 200 μL to which sample, citrated blood or citrated blood plasma, was added and mixed. The addition was by an end-to-end plastic capillary mounted at one end of a tubular body with a displacement mechanism in the other end, this to allow convenient mixing of sample and reagent. Such Mixxocaps with 10 μL capillaries are supplied with the Simple Simon PT product. To perform the experiments described, some Mixxocaps were fitted with 20 μL capillaries, or 5 μL capillaries instead of the 10 μL capillaries with which they were supplied by the manufacturer.
The ratios between the volume of blood or blood plasma to the volume of liquid reagent used in the experiments were 1:11, 1:21 and 1:41. Other ratios lying within the range of 1:5 and 1:100 or within the range of 1:2 and 1:200 could be used.
Anticoagulated normal plasma was the NKP product GHI-163 lot 10188, MediRox AB, Nyköping, Sweden.
It was further relevant that all three PT-methods were calibrated, according to the invention, to show INR 1.000 for unadulterated NKP, and INR 1.357 for the NKP 1:2. All primary INR values, the results that appeared on the instrument screens (one instrument or reader was used for each PT-method), were therefore transformed to the corrected/calibrated INRc by the formula A*INRexp(B) where a and b were selected to given NKP and NKP 1:2 their desired values, 1.000 and 1.357, respectively. The INR-value of the NKP 1:2 was calculated by the formula of Lindahl et al for the INR of corresponding to PT-activity of 50% (half of the 100% that equates to INR 1.000). Above the INR calibrated columns (INRc) there is an upper number and a lower number, these are the above mentioned A and B, respectively.
As deemed relevant the upper number is selected to make NKP 1:2 to show INRc 1.357.
Clinical levels of interest range from 50 to 1000 μg/L in blood plasma.
In the selected calibration INR 1.000 and INR 1.357 were assigned to NKP and NKP 1:2, respectively, which was the same relevant calibration as selected in Examples 1 and 3 above.

[1] = dabigatran 52 μg/L in NKP plasma
[2] = dabigatran 157 μg/L in NKP plasma
[3] = dabigatran 236 μg/L in NKP plasma
[4] = dabigatran 355 μg/L in NKP plasma
[5] = dabigatran 533 μg/L in NKP plasma
[6] = dabigatran 800 μg/L in NKP plasma
[7] = dabigatran 1000 μg/L in NKP plasma

## dabigatran
[1]
  INR 10 μL sample: 1.09
  INR 20 μL sample: 1.16
  INRc 5 μL sample: 1.01
  INRc 10 μL sample: 1.03
  INRc 20 μL sample: 1.16
  INRo: 0.98
  ΔINRc 10 μL − 5 μL: 0.03
  ΔINRc 20 μL − 5 μL: 0.15
[2]
  INR 10 μL sample: 1.19
  INR 20 μL sample: 1.31
  INRc 5 μL sample: 1.08
  INRc 10 μL sample: 1.14
  INRc 20 μL sample: 1.36
  INRo: 1.02
  ΔINRc 10 μL − 5 μL: 0.05
  ΔINRc 20 μL − 5 μL: 0.28
[3]
  INR 5 μL sample: 1.17
  INR 10 μL sample: 1.30
  INR 20 μL sample: 1.53
  INRc 5 μL sample: 1.12
  INRc 10 μL sample: 1.26
  INRc 20 μL sample: 1.67
  INRo: 0.98
  ΔINRc 10 μL − 5 μL: 0.14
  ΔINRc 20 μL − 5 μL: 0.55
[4]
  INR 5 μL sample: 1.28
  INR 10 μL sample: 1.44
  INR 20 μL sample: 1.82
  INRc 5 μL sample: 1.22
  INRc 10 μL sample: 1.41
  INRc 20 μL sample: 2.09
  INRo: 1.03
  ΔINRc 10 μL − 5 μL: 0.19
  ΔINRc 20 μL − 5 μL: 0.87
[5]
  INR 5 μL sample: 1.44
  INR 10 μL sample: 1.70
  INR 20 μL sample: 2.38
  INRc 5 μL sample: 1.37
  INRc 10 μL sample: 1.70
  INRc 20 μL sample: 2.98
  ΔINRc 10 μL − 5 μL: 0.33
  ΔINRc 20 μL − 5 μL: 1.61
[6]
  INR 5 μL sample: 1.81
  INR 10 μL sample: 2.50
  INR 20 μL sample: 4.22
  INRc 5 μL sample: 1.72
  INRc 10 μL sample: 2.62
  INRc 20 μL sample: 6.36
  INRo: 0.81
  ΔINRc 10 μL − 5 μL: 0.91
  ΔINRc 20 μL − 5 μL: 4.64
[7]
  INR 5 μL sample: 2.53
  INR 10 μL sample: 3.55
  INR 20 μL sample: 7.03
  INRc 5 μL sample: 2.39
  INRc 10 μL sample: 3.89
  INRc 20 μL sample: 12.47
  INRo: 0.88
  ΔINRc 10 μL − 5 μL: 1.51
  ΔINRc 20 μL − 5 μL: 10.08
Normal plasma NKP, linear part of the graph (FIG. 8, FIG. 2)
  content at which the INRc-difference (20 μL minus 5 μL) reaches 0.5: about 200 μg/L
